Patent publication US7550277B2, “D-amino acid dehydrogenase and method of making D-amino acids” (Codexis, Inc., priority 2005, dated 2009)

B1: wild-type diaminopimelate dehydrogenase enzyme from Corynebacterium glutamicum: wild-type diaminopimelate dehydrogenase from Corynebacterium glutamicum (ATTC #13032), SEQ ID NO. 2 (protein, listed as Corynebacterium glutamicum)
chain: MTNIRVAIVGYGNLGRSVEKLIAKQPDMDLVGIFSRRATLDTKTPVFDVADVDKHADDVDVLFLCMGSATDIPEQAPKFAQFACTVDTYDNHRDIPRHRQVMNEAATAAGNVALVSTGWDPGMFSINRVYAAAVLAEHQQHTFWGPGLSQGHSDALRRIPGVQKAVQYTLPSEDALEKARRGEAGDLTGKQTHKRQCFVVADAADHERIENDIRTMPDYFVGYEVEVNFIDEATFDSEHTGMPHGGHVITTGDTGGFNHTVEYILKLDRNPDFTASSQIAFGRAAHRMKQQGQSGAFTVLEVAPYLLSPENLDDLIARDV

Key:
[1] = spontaneous racemization of the hydantoin at a pH above 8; depends on substituent at the 5-position; cited from earlier work
[2] = Activity of DAPDH enzymes for reductive amination of 2-keto acids (NADPH decrease at 340 nm); format: biochemical
Procedure: The mutant DAPDH enzyme was assayed spectrophotometrically by monitoring the decrease in concentration of NADPH. The typical reductive amination reaction contained the following: 100 mM sodium carbonate/bicarbonate buffer, pH 9.0, 200 mM NH4Cl, 25 mM 2-keto acid, and 0.2 mM NADPH. The decrease in absorbance at 340 nm was monitored and an NADPH extinction coefficient of 6.22 mM^−1cm^−1 was used to correlate absorbance to concentration. Protein concentrations were determined via the Bradford method ^19 using bovine serum albumin as a protein standard.

| Molecule | rate of racemization τ1/2 [1] | activity toward the reductive amination of 2-ketoacids to produce D-amino acids [2] |
| --- | --- | --- |
| O=C1NC(=O)C(Cc2ccccc2)N1 (centres unmarked) [benzylhydantoin] | 5 h |  |
| CC(C)C1NC(=O)NC1=O (centres unmarked) [isopropylhydantoin] | 56 h |  |
| O=C1NC(=O)C(c2ccccc2)N1 (centres unmarked) [phenylhydantoin] | 0.3 h |  |
| tert-butylhydantoin | 120 h |  |
| B1 |  | little or no activity |
